Reference: US20240002491A1, “METHODS FOR SELECTING PATIENTS FOR TREATMENT WITH AN NGF ANTAGONIST” (Regeneron Pharmaceuticals, Inc., priority 2022, published 2024)

Tested on: adults with moderate-to-severe chronic pain associated with osteoarthritis (OA) of the knee or hip
Assay: FACT OA1 (NCT03161093, R475-OA-1611) Phase 3 trial, WOMAC pain and physical function
Format: in vivo, human
Conditions: FACT OA1, Week 16; fasinumab 1 mg Q4W, naproxen 2 × 500 mg/day
Excerpt: NCT02683239 (R475-PN-1523, or “FACT LTS”), NCT03161093 (R475-OA-1611, or “FACT OA1”), and NCT03304379 (R475-OA-1688, or “FACT OA2”) each were Phase 3 trials evaluating fasinumab in adults with moderate-to-severe chronic pain associated with osteoarthritis (OA) of the knee or hip. All three of these trials enrolled patients with OA of the knee or hip who had inadequate pain relief with acetaminophen and were intolerant to or had inadequate pain relief with opioids, or were unwilling or unable to take opioids. Complete inclusion and exclusion criteria for the trials are described at clinicaltrials.gov/ct2/show/NCT03161093, clinicaltrials.gov/ct2/show/NCT03304379, and clinicaltrials.gov/ct2/show/NCT02683239.
FACT OA1 and FACT OA2 assessed the efficacy of fasinumab in comparison to nonsteroidal anti-inflammatory drugs (NSAIDs; naproxen, diclofenac, or celecoxib) for treatment of OA. FACT OA1 includes results from a total of 1,801 patients randomized to one of four treatment arms: fasinumab 1 mg SC once every 8 weeks (Q8W) (n=304), fasinumab 1 mg SC once every 4 weeks (Q4W) (n=639), naproxen 500 mg twice daily (n=644), or placebo (n=214). In FACT OA2, patients were randomized into one of six treatment groups: fasinumab 1 mg SC once every 4 weeks (Q4W), fasinumab 3 mg SC once every 4 weeks (Q4W), fasinumab 6 mg SC once every 8 weeks (Q8W), celecoxib 200 mg once daily, diclofenac 75 mg twice daily, or placebo. While the FACT OA2 trial was still ongoing, enrollment into the fasinumab 3 mg Q4W and 6 mg Q8W groups was stopped for safety considerations; patients enrolled in those dose regimens discontinued study drug and entered the post-treatment follow-up period.
Fasinumab patients in both trials also reported improvements in their pain and physical function (WOMAC score) compared to those treated with the highest-approved prescription doses of NSAIDS.

In the case of COc1ccc2cc([C@H](C)C(=O)O)ccc2c1 [Naproxen, naproxen, reference compound], the “WOMAC pain, change from baseline” value is reported as −33%, the “WOMAC pain, change from baseline (score, in brackets)” value is reported as “(−2.13)” and the “WOMAC physical function, change from baseline” value is reported as −31%. The “WOMAC physical function, change from baseline (score, in brackets)” value was “(−1.98)”.
